In US7897596B2, “Allosteric modulators of the A1 adenosine receptor” (King Pharmaceuticals Research & Development, Inc., priority 2006, dated 2011):

Target: T1, human A1 adenosine receptors (Homo sapiens, UniProt P30542)
T1 construct: expressed in transfected cells; host or cells: CHO cells (hCHO-A1 clone)
T1 sequence (P30542 1-326): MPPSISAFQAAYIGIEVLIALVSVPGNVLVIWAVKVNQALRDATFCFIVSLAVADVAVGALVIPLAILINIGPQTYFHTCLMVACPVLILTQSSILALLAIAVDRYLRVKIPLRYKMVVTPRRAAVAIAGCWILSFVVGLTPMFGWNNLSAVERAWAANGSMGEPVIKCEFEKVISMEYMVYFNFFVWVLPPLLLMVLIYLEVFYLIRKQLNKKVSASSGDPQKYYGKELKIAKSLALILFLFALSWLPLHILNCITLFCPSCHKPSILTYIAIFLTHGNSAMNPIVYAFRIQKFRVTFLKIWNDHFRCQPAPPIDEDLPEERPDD
Assay: Saturation binding of [3H]CCPA to hCHO-A1
Experimental: The hCHO-A1, hCHO-A2A and hCHO-A3 cell clones are grown adherently and maintained in Dulbecco's modified Eagle's medium with nutrient mixture F12, containing 10% fetal calf serum, penicillin (100 U/mL), streptomycin (100 μg/mL), L-glutamine (2 mM), geneticine (G418, 0.2 mg/mL) at 37° C. in 5% CO2/95% air (Klotz et al. Naunyn-Schmied. Arch Pharm. 1998, 357, 1-9). Cells are split two or three times weekly at a ratio of between 1:5 and 1:10. For membrane preparation the culture medium is removed. The cells are washed with PBS and scraped off T75 flasks in ice-cold hypotonic buffer (5 mM Tris HCl, 2 mM EDTA, pH 7.4). The cell suspension is homogenized with Polytron and the homogenate is spun for 10 min at 1,000×g. […] The protein concentration is determined according to a Bio-Rad method (Bradford, 1976) with bovine albumin as a standard reference.
To determine the effect of the compounds of the present invention on the binding to A1, A2A and A3 receptors, membranes from hCHO-A1, hCHO-A2A, hCHO-A3 are incubated in a buffer solution in the absence and in the presence of the examined compounds. […] Bound and free radioactivity are separated by filtering the assay mixture through Whatman GF/B glass fibre filters using a Micro-mate 196 cell harvester (Packard Instrument Company). The filter bound radioactivity was counted on Top Count Microplate Scintillation Counter (efficacy […]) with Micro 20. […]

Nc1scc(CN2CCC3(CC2)Oc2cccc(F)c2O3)c1C(=O)c1ccc(Cl)cc1 [Example 60, {2-Amino-4-(4-fluorospiro[benzo[d][1,3]-dioxole-2,4′-piperidine]-1′-ylmethyl)thiophen-3-yl}(4-chlorophenyl)methanone]
increase in the BMAX value of the agonist [3H]CCPA: about 6 fold
